Measurements taken from patent US7265259B2, “GSK-3β expressed in a transgenic mouse” (Consejo Superior de Investigaciones Clentificas, priority 2000, dated 2007).

Test system: Tet/GSK-3β mice
Test: Genotype frequency of double transgenic mice after prenatal doxycycline treatment (perinatal lethality)
Type: in vivo, mouse
Details: 14% without treatment, 25% expected
Source text: Tet/GSK-3B mice were viable and fertile and appeared normal without pharmacological intervention to suppress transgene expression. This seemed to contradict the previously postulated toxicity of increased GSK-3β expression in brain (Brownlees et al., 1997). […] The Tet/GSK-3β mice were underrepresented (14%, n=401). This might be indicative of lethality due to embryonic overexpression of GSK-3β in Tet/GSK-3β mice.
We had previously observed perinatal transgene expression and lethality in our CamKIIα-tTA driven animal model of Huntington's disease (HD94) (Yamamoto et al., 2000). In the case of HD94 mice, if pregnant mice are given the tetracycline analog doxycycline (2 mg/ml) in the drinking water ad libitum from E15 to birth, only postnatal transgenic expression takes place and the frequency of the four expected genotypes is restored to 25%. We thus decided to apply the same program of perinatal doxycycline treatment to the Tet/GSK-3B mice. […] As expected, prenatal doxycycline treatment normalized to 25% the frequency of Tet/GSK-3β mice and thus, to maximize yield of double transgenic mice in litters, the perinatal doxycycline treatment was routinely employed.

`C[C@H]1c2cccc(O)c2C(=O)C2=C(O)[C@]3(O)C(=O)C(C(N)=O)=C(O)[C@@H](N(C)C)[C@@H]3[C@@H](O)[C@@H]21` [doxycycline] was tested. Which “frequency of Tet/GSK-3β mice” value did it give?
Its value is 25%.
